Laboratory results published in PMC4735261, “Identification of DYRK1B as a substrate of ERK1/2 and characterisation of the kinase activity of DYRK1B mutants from cancer and metabolic syndrome” (Cellular and Molecular Life Sciences: CMLS, 2015).

Target: T1, DYRK1B (Homo sapiens, UniProt Q9Y463)
T1 construct: Recombinant DYRK1B expressed in insect cells (Carna Biosciences)
Experiment: in vitro enzyme assay; MRM mass spectrometry of autophosphorylation sites
Type: biochemical

T1 sequence (Q9Y463 whole entry): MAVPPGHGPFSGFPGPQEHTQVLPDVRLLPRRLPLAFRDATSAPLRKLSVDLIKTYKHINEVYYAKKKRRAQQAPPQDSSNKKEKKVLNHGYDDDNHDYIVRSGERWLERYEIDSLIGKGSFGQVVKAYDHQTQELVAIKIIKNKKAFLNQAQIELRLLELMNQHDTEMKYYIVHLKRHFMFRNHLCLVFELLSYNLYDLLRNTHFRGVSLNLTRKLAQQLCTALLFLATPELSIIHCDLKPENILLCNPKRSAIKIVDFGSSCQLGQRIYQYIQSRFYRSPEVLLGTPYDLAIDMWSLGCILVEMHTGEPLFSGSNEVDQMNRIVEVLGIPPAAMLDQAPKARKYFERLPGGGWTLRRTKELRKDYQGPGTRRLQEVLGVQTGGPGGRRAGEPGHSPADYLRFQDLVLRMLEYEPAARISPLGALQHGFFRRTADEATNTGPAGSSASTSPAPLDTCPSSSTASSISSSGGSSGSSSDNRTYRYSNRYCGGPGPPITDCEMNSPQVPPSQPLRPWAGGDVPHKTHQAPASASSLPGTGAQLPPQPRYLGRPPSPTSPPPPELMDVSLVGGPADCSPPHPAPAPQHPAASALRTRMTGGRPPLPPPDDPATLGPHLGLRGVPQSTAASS

IC50: < 30 nM
Substance: AZ’294
